{"source": "patent US8716228B2", "about": "“GPR54 agonists or antagonists for treatment of diseases presenting behavioral abnormalities” (YEDA Research and Development Co. Ltd., priority 2009, dated 2014)", "key": {"[1]": {"test_system": "naive C57B1/6 mice", "assay": "PPI in naive C57B1/6 mice", "assay_type": "in vivo, mouse", "details": "naive animals, GnRH receptor antagonist alone", "protocol": "Prepulse Inhibition (PPI). PPI testing was performed within startle chambers purchased from Med Associates Inc (Med Associates, St. Albans, Vt., USA). […] Briefly, during a period of acclimation, a 65-dB background noise was applied for 5-min, and continued throughout the test session. All sessions for testing of PPI consisted of startle trials (pulse alone, 40-ms, 120-dB), prepulse trials (prepulse 20-ms, 69, 73, 78, or 81 dB followed by a (100-ms delay) pulse), and no-stimulus trials. All sessions were presented in pseudo-random order. The average time between trials was 15 s (range 12-30 s). PPI was calculated as: % PPI=100−{[(startle response for prepulse+pulse)/(startle response for pulse-alone)]×100}. […] Data from no-stimulation trials are not included in the results because the values obtained were negligible relative to values from trials containing startle stimuli.\nNeurotensin receptor antagonist SR142948 (TOCRIS COOKSON LTD) was used at 100 μg/kg 60 min before the PPI analysis.\nGnRH receptor antagonist Cetrorelix Acetate (Cetrotide™, Anaspec Inc. Fremont, Calif.). Control mice were administered the same volume of PBS.\nTo examine whether Kp-10 can elevate PPI in naïve mice in a dose dependent manner, we analyzed PPI in C57B1/6 mice that were injected i.p with 100 μl of 1/10/100 μM Kp-10 (SEQ ID NO:3)."}, "[2]": {"test_system": "C57B1/6 mice", "assay": "PPI in MK-801 pharmacological model of schizophrenia", "assay_type": "in vivo, mouse", "details": "acute MK-801 0.1 mg/kg i.p., PPI 15 min later, vs naive mice", "description": "(§1) Prepulse Inhibition (PPI). PPI testing was performed within startle chambers purchased from Med Associates Inc (Med Associates, St. Albans, Vt., USA). PPI was analyzed as described previously (Kipnis et al., 2004). Briefly, during a period of acclimation, a 65-dB background noise was applied for 5-min, and continued throughout the test session. All sessions for testing of PPI consisted of startle trials (pulse alone, 40-ms, 120-dB), prepulse trials (prepulse 20-ms, 69, 73, 78, or 81 dB followed by a (100-ms delay) pulse), and no-stimulus trials. All sessions were presented in pseudo-random order. The average time between trials was 15 s (range 12-30 s). PPI was calculated as: % PPI=100−{[(startle response for prepulse+pulse)/(startle response for pulse-alone)]×100}. In all the experiments, there were no significant differences between groups in trials of startle reactivity to pulse alone, and in no-stimulation trials. Data from no-stimulation trials are not included in the results because the values obtained were negligible relative to values from trials containing startle stimuli. Reduced PPI is associated with schizophrenia-related behavior. […]\nTo further establish the antipsychotic effect of Kp-10, we evaluated its ability to overcome psychotic symptoms induced by the psycho-mimetic agent, MK-801 (N-methyl-D-aspartate (NMDA) antagonist), which induces neurotransmitter imbalance. […]"}, "[3]": {"test_system": "naive C57B1/6 mice", "details": "neurotensin receptor antagonist alone (Binder et al., 2001); cited from earlier work"}, "[4]": {"test_system": "poly I:C rat model for schizophrenia", "details": "prophylactic treatment in peri-adolescence; cited from earlier work"}, "[5]": {"test_system": "Lewis rats", "assay": "Experimental autoimmune encephalomyelitis (EAE)", "assay_type": "in vivo", "details": "female offspring after prenatal poly I:C treatment, MBP68-86 immunization"}, "[6]": {"test_system": "lymphocytes", "assay": "Lymphocyte proliferation assay after MBP68-86 vaccination", "assay_type": "cell-based, Lewis rats", "details": "offspring after prenatal poly I:C treatment"}, "[7]": {"test_system": "Lewis rats", "assay": "PPI in offspring of poly I:C treated Lewis rats", "assay_type": "in vivo", "details": "pregnant Lewis rats 4 mg/kg poly I:C, vs progeny of saline-treated animals", "description": "(§2) Poly I:C administration. Rats or mice were bred, and the first day after copulation was defined as day 1 of pregnancy. On gestation day 15, pregnant animals were injected intravenously with 4.0 mg/kg poly I:C (Sigma-Aldrich, Israel) dissolved in saline, or an equivalent volume of saline as a control. Both rats and mice received the same protocol of poly I:C administration.\nas §1, with “trials.” for “trials. Data from no-stimulation trials are not included in the results because the values obtained were negligible relative to values from trials containing startle stimuli. Reduced PPI is associated with schizophrenia-related behavior.”"}, "[8]": {"test_system": "offspring of poly I:C treated dams", "assay": "PPI in offspring of poly I:C treated dams (mouse model for schizophrenia)", "assay_type": "in vivo", "details": "pregnant C57B1/6 mice 4 mg/kg poly I:C, vs saline", "description": "as §2\nPrepulse Inhibition (PPI). PPI testing was performed within startle chambers purchased from Med Associates Inc (Med Associates, St. Albans, Vt., USA). PPI was analyzed as described previously (Kipnis et al., 2004). Briefly, during a period of acclimation, a 65-dB background noise was applied for 5-min, and continued throughout the test session. All sessions for testing of PPI consisted of startle trials (pulse alone, 40-ms, 120-dB), prepulse trials (prepulse 20-ms, 69, 73, 78, or 81 dB followed by a (100-ms delay) pulse), and no-stimulus trials. All sessions were presented in pseudo-random order. The average time between trials was 15 s (range 12-30 s). PPI was calculated as: % PPI=100−{[(startle response for prepulse+pulse)/(startle response for pulse-alone)]×100}. In all the experiments, there were no significant differences between groups in trials of startle reactivity to pulse alone, and in no-stimulation trials. Data from no-stimulation trials are not included in the results because the values obtained were negligible relative to values from trials containing startle stimuli. Reduced PPI is associated with schizophrenia-related behavior. The same protocol was used in mice and rats (FIG. 1A).\nKisspeptin treatment. Mice were injected i.p with 100 μl of 1/10/100 μM Kp-10 peptide (SEQ ID NO:3) (synthesized at the Weizmann Institute of Science, or Sigma-Aldrich, Israel) dissolved in PBS, 30 minutes before the PPI analysis.\nThe ability of a normal lymphocyte population to reverse abnormal PPI behavior in immune deficient mice, encouraged us to test whether immune cells derived from the offspring of poly I:C treated dams would reverse the abnormal behavior of SCID mice in the PPI test. […]"}, "[9]": {"test_system": "KiSS-1", "assay": "qPCR of KiSS-1 mRNA in hippocampus", "assay_type": "in vivo, mouse", "details": "adult poly I:C affected mice vs age-matched controls"}, "[10]": {"test_system": "BDNF", "assay": "qPCR of BDNF transcripts in hippocampus", "assay_type": "in vivo, mouse", "details": "mRNA, offspring of poly I:C treated dams treated at 8 weeks with Kp-10 or PBS", "description": "RNA purification, cDNA synthesis, reverse transcription PCR, and real-time quantitative PCR analysis. For RNA expression analysis, cells from whole hippocampi were extracted with TRI Reagent (MRC, Cincinnati, Ohio), and total cellular RNA was purified from the lysates using the RNeasy kit (Qiagen, Hilden, Germany). RNA (1 μg) was converted to cDNA using SuperScript II (Promega, Madison, Wis.). The amplification cycle was 95° C. for 5 s, 60° C. for 20 s, and 72° C. for 15 s.\nThe following primers were used: […]\nTo understand what is the mechanism behind the prophylactic treatment of Kp-10 we examined the expression of total brain-derived neurotrophic factor (BDNF) and its exon transcripts 1-4 according to Zajac et al. (2010). […] Recently, association between a BDNF variant and childhood-onset mood disorder was established (Strauss et al., 2005). Therefore, we studied mRNA expression of a few BDNF transcripts in the hippocampus of offspring of PBS treated dams (n=5) compared to offspring of poly I:C treated dams, which were treated at 8 weeks with either Kp-10 (n=6) or PBS (n=6) (Table 3). […] Treatment with Kp-10 at 8 weeks of age induced an increase in the expression of BDNF1 transcript to the normal level (Table 3(ii)). […] In addition, no significant difference was found between the groups in the expression of BDNF transcripts 3 and 4 (Table 3(iv and v)). […] The involvement of BDNF in schizophrenia and its effect on PPI levels are still a debate. Our observations of changes in expression of selective forms of BDNF might explain this apparent dichotomy."}}, "note": "Where a name gives a salt, the structure may show the parent alone. Square brackets hold non-standard residues; d marks the D form. Peptide text beside a SMILES is read from it. dPhe(4-Cl) = N[C@H](Cc1ccc(Cl)cc1)C(=O)O; d2Nal = N[C@H](Cc1ccc2ccccc2c1)C(=O)O; dCit = NC(=O)NCCC[C@@H](N)C(=O)O; d3Pal = N[C@H](Cc1cccnc1)C(=O)O"}
{"compound": "CC(=O)N[C@H](Cc1ccc2ccccc2c1)C(=O)N[C@H](Cc1ccc(Cl)cc1)C(=O)N[C@H](Cc1cccnc1)C(=O)N[C@@H](CO)C(=O)N[C@@H](Cc1ccc(O)cc1)C(=O)N[C@H](CCCNC(N)=O)C(=O)N[C@@H](CC(C)C)C(=O)N[C@@H](CCCNC(=N)N)C(=O)N1CCC[C@H]1C(=O)N[C@H](C)C(N)=O", "note": "[Cetrotide™, Cetrorelix Acetate, reference compound] (Ac-[d2Nal][dPhe(4-Cl)][d3Pal]SY[dCit]LRP[dA]-NH2)", "values": [{"measurement": "PPI", "setting": "[1]", "result": "did not affect PPI"}]}
{"compound": "C[C@]12N[C@H](Cc3ccccc31)c1ccccc12", "note": "[MK-801, [+]-5-methyl-10,11-dihydro-5H-dibenzo-[a,d]-cyclohepten-5,10-imine hydrogen maleate, reference compound]", "values": [{"measurement": "PPI response", "setting": "[2]", "result": "significantly reduced PPI response"}]}
{"compound": "COc1cccc(OC)c1-c1cc(C(=O)NC2(C(=O)O)C3CC4CC(C3)CC2C4)nn1-c1ccc(C(=O)N(C)CCCN(C)C)cc1C(C)C", "note": "(centres unmarked) [NTA]", "values": [{"measurement": "PPI levels", "setting": "[3]", "result": "does not affect PPI levels"}]}
{"compound": "Cc1nc2n(c(=O)c1CCN1CCC(c3noc4cc(F)ccc34)CC1)CCCC2", "note": "[Risperidone]", "values": [{"measurement": "onset of psychotic symptoms and abnormal brain development", "setting": "[4]", "result": "prevented the onset psychotic symptoms and abnormal brain development"}]}
{"compound": "polyriboinosinic-polyribocytidylic acid [poly I:C]", "values": [{"measurement": "Duration of EAE (day ± SEM)", "setting": "[5]", "result": "5.08 ± 0.3", "unit": "days"}, {"measurement": "Onset of EAE (day ± SEM)", "setting": "[5]", "result": "11.17 ± 0.2", "unit": "days"}, {"measurement": "Lymphocyte proliferation (PI ± SD)", "setting": "[6]; antigen Con-A", "result": "126 ± 67"}, {"measurement": "Lymphocyte proliferation (PI ± SD)", "setting": "[6]; antigen MBP68-86", "result": "1.0 ± 0.11"}, {"measurement": "Lymphocyte proliferation (PI ± SD)", "setting": "[6]; antigen Ova", "result": "1.2 ± 0.09"}, {"measurement": "PPI in adult offspring", "setting": "[7]", "result": "reduction in PPI"}, {"measurement": "PPI in adult offspring", "setting": "[8]", "result": "reduced PPI"}, {"measurement": "KiSS-1 mRNA levels in hippocampus", "setting": "[9]", "result": "reduction in KiSS-1 mRNA levels"}, {"measurement": "Expression of BDNF1 transcript", "setting": "[10]", "result": "1.2 ± 0.3"}, {"measurement": "Expression of BDNF2 transcript", "setting": "[10]", "result": "5.7 ± 0.1"}, {"measurement": "Expression of BDNF3 transcript", "setting": "[10]", "result": "6.2 ± 0.9"}, {"measurement": "Expression of BDNF4 transcript", "setting": "[10]", "result": "7.4 ± 1"}, {"measurement": "Expression of BDNF transcript (total BDNF)", "setting": "[10]", "result": "1.7 ± 0.6"}]}
